Source: ChEMBL document CHEMBL1781873, “Synthesis and antibacterial property of pyrrolopyrano quinolinones and pyrroloquinolines” (2011)
Values after ≈ are worked out from the molar mass of the structure shown. Active and inactive are the calls of the source. The rule behind the calls is not given here.

How the values were obtained:
Salmonella typhi [1] = test: Antibacterial activity against Salmonella typhi at 10 ug after 24 hrs by disc diffusion assay; format: functional, Salmonella enterica subsp. enterica serovar Typhi; details: Salmonella enterica, read-out: IZ
Salmonella typhi [2] = test: Antibacterial activity against Salmonella typhi at 15 ug after 24 hrs by disc diffusion assay; format: functional, Salmonella enterica subsp. enterica serovar Typhi; details: Salmonella enterica, read-out: IZ
Salmonella typhi [3] = test: Antibacterial activity against Salmonella typhi at 20 ug after 24 hrs by disc diffusion assay; format: functional, Salmonella enterica subsp. enterica serovar Typhi; details: Salmonella enterica, read-out: IZ
Salmonella typhi [4] = test: Antibacterial activity against Salmonella typhi at 25 ug after 24 hrs by disc diffusion assay; format: functional, Salmonella enterica subsp. enterica serovar Typhi; details: Salmonella enterica, read-out: IZ
Bacillus subtilis [5] = test: Antibacterial activity against Bacillus subtilis at 10 ug after 24 hrs by disc diffusion assay; format: functional; details: read-out: IZ
Bacillus subtilis [6] = test: Antibacterial activity against Bacillus subtilis at 15 ug after 24 hrs by disc diffusion assay; format: functional; details: read-out: IZ
Bacillus subtilis [7] = test: Antibacterial activity against Bacillus subtilis at 20 ug after 24 hrs by disc diffusion assay; format: functional; details: read-out: IZ
Bacillus subtilis [8] = test: Antibacterial activity against Bacillus subtilis at 25 ug after 24 hrs by disc diffusion assay; format: functional; details: read-out: IZ
Escherichia coli [9] = test: Inhibition of Escherichia coli DNA gyrase assessed as inhibition of DNA supercoiling activity using pBR322 DNA as substrate at […] after 3 hrs by agarose gel electrophoresis
Escherichia coli [10] = test: Inhibition of Escherichia coli DNA gyrase -mediated DNA relaxation using pBR322 DNA as substrate at […] after 1 hrs by agarose gel electrophoresis
Escherichia coli [11] = test: Inhibition of DNA gyrase mRNA expression in Escherichia coli measured up to 24 hrs by RT-PCR; format: functional, organism-based
Staphylococcus aureus [12] = test: Antibacterial activity against Staphylococcus aureus after 18 to 20 hrs by broth micro dilution assay; format: functional
Escherichia coli [13] = test: Antibacterial activity against Escherichia coli after 18 to 20 hrs by broth micro dilution assay; format: functional
Klebsiella pneumoniae [14] = test: Antibacterial activity against Klebsiella pneumoniae after 18 to 20 hrs by broth micro dilution assay; format: functional
Pseudomonas aeruginosa [15] = test: Antibacterial activity against Pseudomonas aeruginosa after 18 to 20 hrs by broth micro dilution assay; format: functional
Salmonella typhi [16] = test: Antibacterial activity against Salmonella typhi after 18 to 20 hrs by broth micro dilution assay; format: functional, Salmonella enterica subsp. enterica serovar Typhi; details: Salmonella enterica
Bacillus subtilis [17] = test: Antibacterial activity against Bacillus subtilis after 18 to 20 hrs by broth micro dilution assay; format: functional
Staphylococcus aureus [18] = test: Antibacterial activity against Staphylococcus aureus at 5 ug after 24 hrs by disc diffusion assay; format: functional; details: read-out: IZ
Staphylococcus aureus [19] = test: Antibacterial activity against Staphylococcus aureus at 10 ug after 24 hrs by disc diffusion assay; format: functional; details: read-out: IZ
Staphylococcus aureus [20] = test: Antibacterial activity against Staphylococcus aureus at 15 ug after 24 hrs by disc diffusion assay; format: functional; details: read-out: IZ
Staphylococcus aureus [21] = test: Antibacterial activity against Staphylococcus aureus at 20 ug after 24 hrs by disc diffusion assay; format: functional; details: read-out: IZ
Staphylococcus aureus [22] = test: Antibacterial activity against Staphylococcus aureus at 25 ug after 24 hrs by disc diffusion assay; format: functional; details: read-out: IZ
Escherichia coli [23] = test: Antibacterial activity against Escherichia coli at 5 ug after 24 hrs by disc diffusion assay; format: functional; details: read-out: IZ
Escherichia coli [24] = test: Antibacterial activity against Escherichia coli at 10 ug after 24 hrs by disc diffusion assay; format: functional; details: read-out: IZ
Escherichia coli [25] = test: Antibacterial activity against Escherichia coli at 15 ug after 24 hrs by disc diffusion assay; format: functional; details: read-out: IZ
Escherichia coli [26] = test: Antibacterial activity against Escherichia coli at 20 ug after 24 hrs by disc diffusion assay; format: functional; details: read-out: IZ
Escherichia coli [27] = test: Antibacterial activity against Escherichia coli at 25 ug after 24 hrs by disc diffusion assay; format: functional; details: read-out: IZ
Pseudomonas aeruginosa [28] = test: Antibacterial activity against Pseudomonas aeruginosa at 5 ug after 24 hrs by disc diffusion assay; format: functional; details: read-out: IZ
Pseudomonas aeruginosa [29] = test: Antibacterial activity against Pseudomonas aeruginosa at 10 ug after 24 hrs by disc diffusion assay; format: functional; details: read-out: IZ
Pseudomonas aeruginosa [30] = test: Antibacterial activity against Pseudomonas aeruginosa at 15 ug after 24 hrs by disc diffusion assay; format: functional; details: read-out: IZ
Pseudomonas aeruginosa [31] = test: Antibacterial activity against Pseudomonas aeruginosa at 20 ug after 24 hrs by disc diffusion assay; format: functional; details: read-out: IZ
Pseudomonas aeruginosa [32] = test: Antibacterial activity against Pseudomonas aeruginosa at 25 ug after 24 hrs by disc diffusion assay; format: functional; details: read-out: IZ
Klebsiella pneumoniae [33] = test: Antibacterial activity against Klebsiella pneumoniae at 5 ug after 24 hrs by disc diffusion assay; format: functional; details: read-out: IZ
Klebsiella pneumoniae [34] = test: Antibacterial activity against Klebsiella pneumoniae at 10 ug after 24 hrs by disc diffusion assay; format: functional; details: read-out: IZ
Klebsiella pneumoniae [35] = test: Antibacterial activity against Klebsiella pneumoniae at 15 ug after 24 hrs by disc diffusion assay; format: functional; details: read-out: IZ
Klebsiella pneumoniae [36] = test: Antibacterial activity against Klebsiella pneumoniae at 20 ug after 24 hrs by disc diffusion assay; format: functional; details: read-out: IZ
Klebsiella pneumoniae [37] = test: Antibacterial activity against Klebsiella pneumoniae at 25 ug after 24 hrs by disc diffusion assay; format: functional; details: read-out: IZ
Salmonella typhi [38] = test: Antibacterial activity against Salmonella typhi at 5 ug after 24 hrs by disc diffusion assay; format: functional, Salmonella enterica subsp. enterica serovar Typhi; details: Salmonella enterica, read-out: IZ
Bacillus subtilis [39] = test: Antibacterial activity against Bacillus subtilis at 5 ug after 24 hrs by disc diffusion assay; details: read-out: IZ

Compound: CCC1[C@H]2c3c(n(C)c4ccccc4c3=O)OC(C)(C)[C@@H]2CN1OS(=O)(=O)c1ccc(C)cc1 (mixture of isomers)
- zone of inhibition at 10 µg/disc (Salmonella typhi [1]): 16 mm
- zone of inhibition at 15 µg/disc (Salmonella typhi [2]): 18 mm
- zone of inhibition at 20 µg/disc (Salmonella typhi [3]): 22 mm
- zone of inhibition at 25 µg/disc (Salmonella typhi [4]): 24 mm
- zone of inhibition at 10 µg/disc (Bacillus subtilis [5]): 8 mm
- zone of inhibition at 15 µg/disc (Bacillus subtilis [6]): 9 mm
- zone of inhibition at 20 µg/disc (Bacillus subtilis [7]): 10 mm
- zone of inhibition at 25 µg/disc (Bacillus subtilis [8]): 11 mm
- DNA gyrase inhibition (active/inactive) (Escherichia coli [9]): Active
- inhibition (Escherichia coli [10]): Active
- inhibition of gyrase mRNA expression (active/not active) (Escherichia coli [11]): inactive
- MIC50 (Staphylococcus aureus [12]): 0.5 µg/mL
- MIC90 (Staphylococcus aureus [12]): 0.5 µg/mL
- MIC50 (Escherichia coli [13]): 0.5 µg/mL
- MIC90 (Escherichia coli [13]): 0.5 µg/mL
- MIC50 (Klebsiella pneumoniae [14]): 0.5 µg/mL
- MIC90 (Klebsiella pneumoniae [14]): 0.5 µg/mL
- MIC50 (Pseudomonas aeruginosa [15]): 0.5 µg/mL
- MIC90 (Pseudomonas aeruginosa [15]): 0.5 µg/mL
- MIC50 (Salmonella typhi [16]): 0.5 µg/mL
- MIC90 (Salmonella typhi [16]): 0.5 µg/mL
- MIC50 (Bacillus subtilis [17]): 0.5 µg/mL
- MIC90 (Bacillus subtilis [17]): 0.5 µg/mL
- zone of inhibition at 5 µg/disc (Staphylococcus aureus [18]): 20 mm
- zone of inhibition at 10 µg/disc (Staphylococcus aureus [19]): 24 mm
- zone of inhibition at 15 µg/disc (Staphylococcus aureus [20]): 26 mm
- zone of inhibition at 20 µg/disc (Staphylococcus aureus [21]): 30 mm
- zone of inhibition at 25 µg/disc (Staphylococcus aureus [22]): 36 mm
- zone of inhibition at 5 µg/disc (Escherichia coli [23]): 12 mm
- zone of inhibition at 10 µg/disc (Escherichia coli [24]): 14 mm
- zone of inhibition at 15 µg/disc (Escherichia coli [25]): 16 mm
- zone of inhibition at 20 µg/disc (Escherichia coli [26]): 22 mm
- zone of inhibition at 25 µg/disc (Escherichia coli [27]): 23 mm
- zone of inhibition at 5 µg/disc (Pseudomonas aeruginosa [28]): 24 mm
- zone of inhibition at 10 µg/disc (Pseudomonas aeruginosa [29]): 26 mm
- zone of inhibition at 15 µg/disc (Pseudomonas aeruginosa [30]): 28 mm
- zone of inhibition at 20 µg/disc (Pseudomonas aeruginosa [31]): 34 mm
- zone of inhibition at 25 µg/disc (Pseudomonas aeruginosa [32]): 36 mm
- zone of inhibition at 5 µg/disc (Klebsiella pneumoniae [33]): 10 mm
- zone of inhibition at 10 µg/disc (Klebsiella pneumoniae [34]): 14 mm
- zone of inhibition at 15 µg/disc (Klebsiella pneumoniae [35]): 16 mm
- zone of inhibition at 20 µg/disc (Klebsiella pneumoniae [36]): 24 mm
- zone of inhibition at 25 µg/disc (Klebsiella pneumoniae [37]): 26 mm
- zone of inhibition at 5 µg/disc (Salmonella typhi [38]): 10 mm

Compound: O=C(O)c1cn(C2CC2)c2cc(N3CCNCC3)c(F)cc2c1=O [CIPROFLOXACIN]
- zone of inhibition at 10 µg/disc (Salmonella typhi [1]): 16 mm
- zone of inhibition at 15 µg/disc (Salmonella typhi [2]): 18 mm
- zone of inhibition at 20 µg/disc (Salmonella typhi [3]): 22 mm
- zone of inhibition at 25 µg/disc (Salmonella typhi [4]): 24 mm
- zone of inhibition at 5 µg/disc (Bacillus subtilis [39]): 6 mm
- zone of inhibition at 10 µg/disc (Bacillus subtilis [5]): 7 mm
- zone of inhibition at 15 µg/disc (Bacillus subtilis [6]): 9 mm
- zone of inhibition at 20 µg/disc (Bacillus subtilis [7]): 10 mm
- zone of inhibition at 25 µg/disc (Bacillus subtilis [8]): 12 mm
- DNA gyrase inhibition (active/inactive) (Escherichia coli [9]): Active
- inhibition (Escherichia coli [10]): Active
- MIC50 (Staphylococcus aureus [12]): 0.5 µg/mL (≈ 1.51 µM)
- MIC90 (Staphylococcus aureus [12]): 1 µg/mL (≈ 3.02 µM)
- MIC90 (Escherichia coli [13]): 1 µg/mL (≈ 3.02 µM)
- MIC50 (Klebsiella pneumoniae [14]): 0.5 µg/mL (≈ 1.51 µM)
- MIC90 (Klebsiella pneumoniae [14]): 1 µg/mL (≈ 3.02 µM)
- MIC50 (Pseudomonas aeruginosa [15]): 0.5 µg/mL (≈ 1.51 µM)
- MIC90 (Pseudomonas aeruginosa [15]): 1 µg/mL (≈ 3.02 µM)
- MIC50 (Salmonella typhi [16]): 0.5 µg/mL (≈ 1.51 µM)
- MIC90 (Salmonella typhi [16]): 1 µg/mL (≈ 3.02 µM)
- MIC50 (Bacillus subtilis [17]): 0.5 µg/mL (≈ 1.51 µM)
- MIC90 (Bacillus subtilis [17]): 1 µg/mL (≈ 3.02 µM)
- zone of inhibition at 5 µg/disc (Staphylococcus aureus [18]): 22 mm
- zone of inhibition at 10 µg/disc (Staphylococcus aureus [19]): 24 mm
- zone of inhibition at 15 µg/disc (Staphylococcus aureus [20]): 26 mm
- zone of inhibition at 20 µg/disc (Staphylococcus aureus [21]): 30 mm
- zone of inhibition at 25 µg/disc (Staphylococcus aureus [22]): 36 mm
- zone of inhibition at 10 µg/disc (Escherichia coli [24]): 16 mm
- zone of inhibition at 15 µg/disc (Escherichia coli [25]): 18 mm
- zone of inhibition at 5 µg/disc (Pseudomonas aeruginosa [28]): 12 mm
- zone of inhibition at 10 µg/disc (Pseudomonas aeruginosa [29]): 14 mm
- zone of inhibition at 15 µg/disc (Pseudomonas aeruginosa [30]): 16 mm
- zone of inhibition at 20 µg/disc (Pseudomonas aeruginosa [31]): 20 mm
- zone of inhibition at 25 µg/disc (Pseudomonas aeruginosa [32]): 23 mm
- zone of inhibition at 5 µg/disc (Klebsiella pneumoniae [33]): 24 mm
- zone of inhibition at 10 µg/disc (Klebsiella pneumoniae [34]): 26 mm
- zone of inhibition at 15 µg/disc (Klebsiella pneumoniae [35]): 30 mm
- zone of inhibition at 20 µg/disc (Klebsiella pneumoniae [36]): 34 mm
- zone of inhibition at 25 µg/disc (Klebsiella pneumoniae [37]): 36 mm
- zone of inhibition at 5 µg/disc (Salmonella typhi [38]): 14 mm
